# Measured values taken from US11767320B2, “Bicyclic dione compounds as inhibitors of KRAS” (INCYTE CORPORATION, priority 2020, dated 2023).
# Biological target: KRAS G12C (Homo sapiens, UniProt P01116, G12C)
# Test: GDP-GTP exchange assay (fluorescence based guanine nucleotide exchange, bodipy-GDP for GppNHp, SOS1)
# Type: biochemical
# Settings: bodipy-loaded KRAS G12C, 2 hours pre-incubation with inhibitor, read-out: G12C_exchange (KRAS_G12C exchange assay IC50)
# Procedure: The inhibitor potency of the exemplified compounds was determined in a fluorescence based guanine nucleotide exchange assay, which measures the exchange of bodipy-GDP (fluorescently labeled GDP) for GppNHp (Non-hydrolyzable GTP analog) to generate the active state of KRAS in the presence of SOS1 (guanine nucleotide exchange factor). Inhibitors were serially diluted in DMSO and a volume of 0.1 μL was transferred to the wells of a black low volume 384-well plate. 5 μL/well volume of bodipy-loaded KRAS G12C diluted to 5 nM in assay buffer (25 mM Hepes pH 7.5, 50 mM NaCl, 10 mM MgCl2 and 0.01% Brij-35) was added to the plate and pre-incubated with inhibitor for 2 hours at ambient temperature. Appropriate controls (enzyme with no inhibitor or with a G12C inhibitor (AMG-510)) were included on the plate. The exchange was initiated by the addition of a 5 μL/well volume containing 1 mM GppNHp and 300 nM SOS1 in assay buffer. The 10 μL/well reaction concentration of the bodipy-loaded KRAS G12C, GppNHp, and SOS1 were 5-25 nM, 500 uM, and 150 nM, respectively. The reaction plates were incubated at ambient temperature for 2 hours, a time estimated for complete GDP-GTP exchange in the absence of inhibitor. For the KRAS G12D and G12V mutants, similar guanine nucleotide exchange assays were used with 2.5 nM as final concentration for the bodipy loaded KRAS proteins and with 4 hours and 3 hours incubation after adding GppNHp-SOS1 mixture for G12D and G12V, respectively. A cyclic peptide described to selectively bind G12D mutant (Sakamoto et al., BBRC 484.3 (2017), 605-611) or internal compounds with confirmed binding were used as positive controls in the assay plates. Fluorescence intensities were measured on a PheraStar plate reader instrument (BMG Labtech) with excitation at 485 nm and emission at 520 nm.
# Either GraphPad prism or XLfit was used to analyze the data. The IC50 values were derived by fitting the data to a four parameter logistic equation producing a sigmoidal dose-response curve with a variable Hill coefficient. Prism equation: Y=Bottom+(Top−Bottom)/(1+10^((Log IC50−X)*Hill slope)); XLfit equation: Y=(A+((B−A)/(1+((X/C)^D)))) where X is the logarithm of inhibitor concentration and Y is the response.
# Sequence of KRAS G12C (P01116 1-188 isoform P01116-2 G12C): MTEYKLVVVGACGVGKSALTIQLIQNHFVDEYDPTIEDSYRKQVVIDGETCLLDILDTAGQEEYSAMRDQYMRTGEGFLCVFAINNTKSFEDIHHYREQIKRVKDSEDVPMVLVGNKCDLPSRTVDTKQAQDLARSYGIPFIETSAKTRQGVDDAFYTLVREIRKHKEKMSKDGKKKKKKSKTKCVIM
row,SMILES,IC50 [nM]
1,"C=CC(=O)N1CCC(n2c(=O)c(=O)n(-c3c(CC)cccc3CC)c3nc(-c4ccccc4F)c(Cl)cc32)CC1 [Example 1, 1-(1-acryloylpiperidin-4-yl)-7-chloro-4-(2,6-diethylphenyl)-6-(2-fluorophenyl)-1,4-dihydropyrido[2,3-b]pyrazine-2,3-dione]",5000 to 10000
2,"C=CC(=O)N1CCC(n2c(=O)c(=O)n(-c3c(CC)cccc3CC)c3nc(-c4c(O)cccc4F)c(Cl)cc32)CC1 [Example 2, 1-(1-acryloylpiperidin-4-yl)-7-chloro-4-(2,6-diethylphenyl)-6-(2-fluoro-6-hydroxyphenyl)-1,4-dihydropyrido[2,3-b]pyrazine-2,3-dione]",1000 to 5000
3,"C=CC(=O)N1CC(Cn2c(=O)c(=O)n(-c3c(C(C)C)cccc3C(C)C)c3nc(-c4cccc5ccccc45)c(Cl)cc32)C1 [Example 6, 1-((1-acryloylazetidin-3-yl)methyl)-7-chloro-4-(2,6-diisopropylphenyl)-6-(1-naphthyl)-1,4-dihydropyrido[2,3-b]pyrazine-2,3-dione]",1000 to 5000
4,"C=CC(=O)N1CC(F)(Cn2c(=O)c(=O)n(-c3c(C)ccnc3C(C)C)c3nc(-c4cccc5nn[nH]c45)c(Cl)cc32)C1 [Example 30, 1-((1-acryloyl-3-fluoroazetidin-3-yl)methyl)-6-(1H-benzo[d][1,2,3]triazol-7-yl)-7-chloro-4-(2-isopropyl-4-methylpyridin-3-yl)-1,4-dihydropyrido[2,3-b]pyrazine-2,3-dione]",100 to 1000
5,"C=CC(=O)N1CC(F)(Cn2c(=O)c(=O)n(-c3c(C)ccnc3C(C)C)c3nc(-c4cccnc4N)c(Cl)cc32)C1 [Example 31, 1-((1-acryloyl-3-fluoroazetidin-3-yl)methyl)-6-(2-aminopyridin-3-yl)-7-chloro-4-(2-isopropyl-4-methylpyridin-3-yl)-1,4-dihydropyrido[2,3-b]pyrazine-2,3-dione]",100 to 1000
6,"C=CC(=O)N1CC(F)(Cn2c(=O)c(=O)n(-c3c(C)ccnc3C(C)C)c3nc(-c4cccc5ccc(=O)[nH]c45)c(Cl)cc32)C1 [Example 32, 1-((1-acryloyl-3-fluoroazetidin-3-yl)methyl)-7-chloro-4-(2-isopropyl-4-methylpyridin-3-yl)-6-(2-oxo-1,2-dihydroquinolin-8-yl)-1,4-dihydropyrido[2,3-b]pyrazine-2,3-dione]",100 to 1000
7,"C=CC(=O)N1CC(Cn2c(=O)c(=O)n(-c3c(C)ccnc3C(C)C)c3nc(-c4ccccc4F)c(Cl)cc32)(OC)C1 [Example 41, 1-((1-acryloyl-3-methoxyazetidin-3-yl)methyl)-6-(2-fluorophenyl)-7-chloro-4-(2-isopropyl-4-methylpyridin-3-yl)-1,4-dihydropyrido[2,3-b]pyrazine-2,3-dione]",100 to 1000
8,"C=CC(=O)N1CC(O)(Cn2c(=O)c(=O)n(-c3c(C)ccnc3C(C)C)c3nc(-c4ccccc4F)c(Cl)cc32)C1 [Example 43, 1-((1-acryloyl-3-hydroxyazetidin-3-yl)methyl)-7-chloro-6-(2-fluorophenyl)-4-(2-isopropyl-4-methylpyridin-3-yl)-1,4-dihydropyrido[2,3-b]pyrazine-2,3-dione]",100 to 1000
9,"C=CC(=O)N1CC(O)(Cn2c(=O)c(=O)n(-c3c(C)ccnc3C(C)C)c3nc(-c4c(F)ccc(F)c4O)c(Cl)cc32)C1 [Example 44, 1-((1-acryloyl-3-hydroxyazetidin-3-yl)methyl)-7-chloro-6-(3,6-difluoro-2-hydroxyphenyl)-4-(2-isopropyl-4-methylpyridin-3-yl)-1,4-dihydropyrido[2,3-b]pyrazine-2,3-dione]",100 to 1000
10,"C=CC(=O)N1CC(O)(Cn2c(=O)c(=O)n(-c3c(C)ccnc3C(C)C)c3nc(-c4c(O)cc(C)cc4F)c(Cl)cc32)C1 [Example 46, 1-((1-acryloyl-3-hydroxyazetidin-3-yl)methyl)-7-chloro-6-(2-fluoro-6-hydroxy-4-methylphenyl)-4-(2-isopropyl-4-methylpyridin-3-yl)-1,4-dihydropyrido[2,3-b]pyrazine-2,3-dione]",100 to 1000
11,"[2H]C([2H])(n1c(=O)c(=O)n(-c2c(C)ccnc2C(C)C)c2nc(-c3cncc(C)c3C)c(Cl)cc21)C1(F)CN(C(=O)C=C)C1 [Example 52, 1-((1-acryloyl-3-fluoroazetidin-3-yl)methyl-d2)-7-chloro-6-(4,5-dimethylpyridin-3-yl)-4-(2-isopropyl-4-methylpyridin-3-yl)-1,4-dihydropyrido[2,3-b]pyrazine-2,3-dione]",1000 to 5000
12,"[2H]C([2H])(n1c(=O)c(=O)n(-c2c(C)ccnc2C(C)C)c2nc(-c3ccnc(C)c3Cl)c(Cl)cc21)C1(F)CN(C(=O)C=C)C1 [Example 54, 1-((1-acryloyl-3-fluoroazetidin-3-yl)methyl-d2)-7-chloro-6-(3-chloro-2-methylpyridin-4-yl)-4-(2-isopropyl-4-methylpyridin-3-yl)-1,4-dihydropyrido[2,3-b]pyrazine-2,3-dione]",100 to 1000
13,"[2H]C([2H])(n1c(=O)c(=O)n(-c2c(C)ccnc2C(C)C)c2nc(-c3ccccc3-c3ccccc3)c(Cl)cc21)C1(F)CN(C(=O)C=C)C1 [Example 55, 6-([1,1′-biphenyl]-2-yl)-1-((1-acryloyl-3-fluoroazetidin-3-yl)methyl-d2)-7-chloro-4-(2-isopropyl-4-methylpyridin-3-yl)-1,4-dihydropyrido[2,3-b]pyrazine-2,3-dione]",100 to 1000

# Continued, values first:
row,IC50 [nM],SMILES
1,100 to 1000,"C=CC(=O)N1CC(Cn2c(=O)c(=O)n(-c3c(C(C)C)cccc3C(C)C)c3nc(-c4ccccc4F)c(Cl)cc32)C1 [Example 3, 1-((1-acryloylazetidin-3-yl)methyl)-7-chloro-4-(2,6-diisopropylphenyl)-6-(2-fluorophenyl)-1,4-dihydropyrido[2,3-b]pyrazine-2,3-dione]"
2,100 to 1000,"C=CC(=O)N1CC(Cn2c(=O)c(=O)n(-c3c(CC)cccc3CC)c3nc(-c4ccccc4F)c(Cl)cc32)C1 [Example 4, 1-((1-acryloylazetidin-3-yl)methyl)-7-chloro-4-(2,6-diethylphenyl)-6-(2-fluorophenyl)-1,4-dihydropyrido[2,3-b]pyrazine-2,3-dione]"
3,100 to 1000,"C=CC(=O)N1CC(F)(Cn2c(=O)c(=O)n(-c3c(C)ccnc3C(C)C)c3nc(-c4c(F)ccc(O)c4O)c(Cl)cc32)C1 [Example 26, 1-((1-acryloyl-3-fluoroazetidin-3-yl)methyl)-7-chloro-6-(6-fluoro-2,3-dihydroxyphenyl)-4-(2-isopropyl-4-methylpyridin-3-yl)-1,4-dihydropyrido[2,3-b]pyrazine-2,3-dione]"
4,100 to 1000,"C=CC(=O)N1CC(F)(Cn2c(=O)c(=O)n(-c3c(C)ccnc3C(C)C)c3nc(-c4cccc5cn[nH]c45)c(Cl)cc32)C1 [Example 29, 1-((1-acryloyl-3-fluoroazetidin-3-yl)methyl)-7-chloro-6-(1H-indazol-7-yl)-4-(2-isopropyl-4-methylpyridin-3-yl)-1,4-dihydropyrido[2,3-b]pyrazine-2,3-dione]"
5,≤ 100,"[2H]C([2H])(n1c(=O)c(=O)n(-c2c(C)ccnc2C(C)C)c2nc(-c3c(O)cc(C)cc3F)c(Cl)cc21)C1(F)CN(C(=O)C=C)C1 [Example 48, 1-((1-acryloyl-3-fluoroazetidin-3-yl)methyl-d2)-7-chloro-6-(2-fluoro-6-hydroxy-4-methylphenyl)-4-(2-isopropyl-4-methylpyridin-3-yl)-1,4-dihydropyrido[2,3-b]pyrazine-2,3-dione]"
6,≤ 100,"[2H]C([2H])(n1c(=O)c(=O)n(-c2c(C)ccnc2C(C)C)c2nc(-c3c(O)cccc3Cl)c(Cl)cc21)C1(F)CN(C(=O)C=C)C1 [Example 49, 1-((1-acryloyl-3-fluoroazetidin-3-yl)methyl-d2)-7-chloro-6-(2-chloro-6-hydroxyphenyl)-4-(2-isopropyl-4-methylpyridin-3-yl)-1,4-dihydropyrido[2,3-b]pyrazine-2,3-dione]"
7,≤ 100,"[2H]C([2H])(n1c(=O)c(=O)n(-c2c(C)ccnc2C(C)C)c2nc(-c3c(O)cccc3Cl)c(Cl)cc21)C1(F)CN(C(=O)C(=C)F)C1 [Example 50, 7-chloro-6-(2-chloro-6-hydroxyphenyl)-1-((3-fluoro-1-(2-fluoroacryloyl)azetidin-3-yl)methyl-d2)-4-(2-isopropyl-4-methylpyridin-3-yl)-1,4-dihydropyrido[2,3-b]pyrazine-2,3-dione]"
8,≤ 100,"[2H]C([2H])(n1c(=O)c(=O)n(-c2c(C)ccnc2C(C)C)c2nc(-c3cccc4ccccc34)c(Cl)cc21)C1(F)CN(C(=O)C=C)C1 [Example 53, 1-((1-acryloyl-3-fluoroazetidin-3-yl)methyl-d2)-7-chloro-4-(2-isopropyl-4-methylpyridin-3-yl)-6-(naphthalen-1-yl)-1,4-dihydropyrido[2,3-b]pyrazine-2,3-dione]"
